Literature values as cited in publication PMC11040670, “Mechanistic and Kinetic Insights into Cellular Uptake of Biomimetic Dinitrosyl Iron Complexes and Intracellular Delivery of NO for Activation of Cytoprotective HO-1” (JACS Au, 2024).

Tests used:
[1] = set-up: method as in doi:10.1021/j100627a005; details: cited from earlier work
Prx 1 = system: Prx 1; set-up: method as in earlier work; details: generated [(NO)2Fe(SGS)(SCys-Prx1)]n–, phosphate buffer (pH 7.4), normoxia; ref SI 4; cited from earlier work

Compound | pKa for the carboxylic acid group [1] | k, second-order rate constant (Prx 1) [M⁻¹ s⁻¹]
O=C(O)CCS [HSCH2CH2COOH] | 4.3 | 
[(NO)2Fe(SGS)2]n– and [(NO)2Fe(-SGS)2Fe(NO)2]m– [DNDGIC] |  | 7.0 ± 0.4
